# Patent publication US20230181482A1, “LIPIDS FOR DELIVERY OF NUCLEIC ACID SEGMENTS” (AstraZeneca AB, priority 2021, published 2023)
# Assays:
# [1] = mRNA encapsulation efficiency of LNP formulations (Quant-it Ribogreen assay with Triton-X100); type: physicochemical; details: DMPE-PEG2000
# Procedure, shortened: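 LNPs of ionizable lipid/cholesterol/DSPC/polymer-lipid (50/38.5/10/1.5 mol%, 12.5 mM total lipid) formed by microfluidic mixing with eGFP mRNA in 50 mM citrate, pH 3, at 3:1 aqueous:ethanol and N/P 3:1 or 6:1. Encapsulation efficiency measured by RiboGreen with and without Triton-X100 disruption.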
# [2] = LNP particle size by dynamic light scattering (Zetasizer Nano ZS); type: physicochemical; details: DMPE-PEG2000
# Procedure, shortened: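 eGFP mRNA in 50 mM citrate (from pH 3 buffer) was mixed microfluidically (Aq:EtOH 3:1, 12 mL/min) with ethanolic lipids, ionizable lipid/cholesterol/DSPC/polymer-conjugated lipid 50/38.5/10/1.5 mol %, 12.5 mM total, at N/P 3:1 or 6:1. Dynamic light scattering gave z-average diameter. Number-weighted distributions used refractive index 1.45.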
# [3] = system: human broncho-epithelial cell line 16HBE; test: In vitro expression of eGFP in 16HBE cells (GFP ELISA); type: cell-based; details: for eGFP in 16HBE: LNP formulation nos. 1 and 7 (N/P 3:1), 24 h, 125 ng mRNA per well, (standard error of the mean); for Ratio Lipid/MC3: ratio of eGFP expression in 16HBE to the MC3 formulation
# Protocol: In vitro expression of EGFP protein from LNP formulation nos. 1 and 7 described in Example 58 was tested in the human broncho-epithelial cell line 16HBE (Sigma-Aldrich SCC150. 16HBE cells were maintained in DMEM, low glucose with GlutaMAX™+pyruvate (Gibco 21885-025) supplemented with MEM Non-Essential Amino Acids (Gibco 11140035) and 10% Heat-Inactivated Fetal Calf Serum (HI-FCS). The cells were cultured at 37° C. in a humidified atmosphere with 5% CO2. The day prior to an experiment, cells were detached from culture flasks using TrypLE™ (Gibco 12604013) and seeded in cell culture treated 96-well plates (Greiner Bio-One #655090) at a density of 20.000 cells per well. At the day of an experiment, 1 hour before incubation with LNPs, medium was removed and replaced with 95 ul DMEM including 1% HI-FCS. After 1 hour of conditioning, 5 ul of LNPs in PBS was added and mixed by a Bravo robot, resulting in a final concentration of 50-125 ng mRNA per well. Cells were then incubated for 24 h at 37° C. in a humidified atmosphere with 5% CO2. Absolute quantification of EGFP protein was done using ELISA (GFP SimpleStep ELISA kit, Abcam #ab171581). After 24 h of incubation, cells were lysed by adding 100 ul of lysis buffer to each well (Lysis buffer included in the kit, or Abcam products #ab193970 and #ab193971) Cells were then lysed by a freeze-thaw cycle in lysis buffer. Lysates were measured in appropriate dilutions according to the kit manufacturer's instructions. Results are reported as number of EGFP molecules expressed per mRNA dosed, after 24 h, calculated from the values of 125 ng mRNA per well. Results are plotted as Mean+SEM from triplicate values.
# The expression of eGFP in 16HBE cytosol proves the function of the used LNP composition of eGFP mRNA in promoting gene transfection and […]. The quantification of eGFP allows to compare different LNP compositions with the MC3-based lipid composition, used as a comparator, with regard to the induction of protein expression in 16HBE to obtain the ratio of lipid to MC3. In this application, the LNP compositions differ in their ionizable lipid (IL) component. […] (see FIG. 1).
# [4] = system: Female BALB/c mice; test: eGFP expression in the liver at 24 hours after intravenous administration of LNP formulations to mouse (ELISA); type: in vivo; details: LNP N/P 3:1, DMPE-PEG2000
# Procedure, shortened: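 Mice (6-8 weeks, n=4/group) received a slow IV tail-vein bolus of LNP formulation at 0.3 mg/kg. Livers were harvested 24 hours post-dose and eGFP quantified by ELISA.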
# [5] = Table 1, LNP with eGFP mRNA, N/P ratio 3:1
# [6] = Table 1, number-average particle diameter, N/P ratio 3:1
# [7] = Table 1, z-average particle diameter, N/P ratio 3:1
smiles,measurement,setting,value
"CCCCCC(CCCCC)CCOC(=O)CCCCCCCC(CCCCCCCC(=O)OCCC(CCCCC)CCCCC)NC1CC2(COC2)C1 [Compound 1, Bis(3-pentyloctyl) 9-((2-oxaspiro[3.3]heptan-6-yl)amino)heptadecanedioate]",% EE,[1]; [5],97%
same,% EE,"[1]; Table 1, LNP with eGFP mRNA, N/P ratio 6:1",94%
same,<d>N (nm),[2]; [6],68 nm
same,<d>N (nm),"[2]; Table 1, number-average particle diameter, N/P ratio 6:1",57 nm
same,<d>Z (nm),[2]; [7],84 nm
same,<d>Z (nm),"[2]; Table 1, z-average particle diameter, N/P ratio 6:1",74 nm
same,eGFP in 16HBE,[3],0.044 (±0.004) number of protein molecules per number of dosed mRNA molecules
same,Ratio Lipid/MC3,[3],1.9
"CCCCC/C=C\C/C=C\CCCCCCCCC(CCCCCCCC/C=C\C/C=C\CCCCC)OC(=O)CCCN(C)C [MC3, [(10Z,13Z)-1-[(9Z,12Z)-octadeca-9,12-dienyl]nonadeca-10,13-dienyl] 4-(dimethylamino)butanoate, reference compound]",Liver eGFP protein (ng/g tissue),"[4]; Table 3, 0.3 mg/kg",3091.5 ng/g tissue
same,Liver eGFP protein (ng/g tissue),"[4]; Table 4, 0.3 mg/kg",916.4 ng/g tissue
same,Liver eGFP protein (ng/g tissue),"[4]; Table 5, 0.3 mg/kg",1114.4 ng/g tissue
same,Liver eGFP protein (ng/g tissue),"[4]; Table 6, 0.3 mg/kg",3802.0 ng/g tissue
same,% EE,[1]; [5],99%
same,% EE,"[1]; Table 3, N/P ratio 3:1",98%
same,% EE,"[1]; Table 4, N/P ratio 3:1",98%
same,% EE,"[1]; Table 5, N/P ratio 3:1",98%
same,% EE,"[1]; Table 6, N/P ratio 3:1",98%
same,<d>N (nm),[2]; [6],72 nm
same,<d>Z (nm),[2]; [7],86 nm
same,<d>N (nm),"[2]; Table 3, N/P ratio 3:1",63 nm
same,<d>Z (nm),"[2]; Table 3, N/P ratio 3:1",79 nm
same,<d>N (nm),"[2]; Table 4, N/P ratio 3:1",71 nm
same,<d>Z (nm),"[2]; Table 4, N/P ratio 3:1",88 nm
same,<d>N (nm),"[2]; Table 5, N/P ratio 3:1",66 nm
same,<d>Z (nm),"[2]; Table 5, N/P ratio 3:1",82 nm
same,<d>N (nm),"[2]; Table 6, N/P ratio 3:1",61 nm
same,<d>Z (nm),"[2]; Table 6, N/P ratio 3:1",74 nm
same,eGFP in 16HBE,[3],0.023 (±0.001) number of protein molecules per number of dosed mRNA molecules
same,Ratio Lipid/MC3,[3],1
